Results from patent publication US6211214A, “Biphenyl ether oxazolines and their use as pest-control agents” (Bayer Aktiengesellschaft, priority 1995, dated 2001).
Where two headings read alike, the source gives them in different places.

How the values were obtained:
[1] = tested on: two-spotted spider mite (Tetranychus urticae); assay: Tetranychus test (OP-resistant/dipping treatment); type: in vivo; settings: 312 h, read-out: destruction
Protocol: Tetranychus Test (OP-resistant/dipping treatment)
(§1) Solvent: 7 parts by weight of dimethylformamide
(§2) Emulsifier: 1 part by weight of alkylaryl polyglycol ether
To produce a suitable preparation of active compound, 1 part by weight of active compound is mixed with the stated amount of solvent and the stated amount of emulsifier, and the concentrate is diluted with emulsifier-containing water to the desired concentrations.
Bean plants (Phaseolus vulgaris) which are heavily infested with all stages of the two-spotted spider mite (Tetranychus urticae) are treated by being dipped into a preparation of the active compound of the desired concentration.
After the desired time, the effect in % is determined. 100% means that all the spider mites have been killed; 0% means that none of the spider mites have been killed.

[2] = tested on: caterpillars of the diamond-back moth (Plutella maculipennis); assay: Plutella test (cabbage leaves dipped); type: in vivo; settings: 168 h, after 7 days, 0.0001% active compound, read-out: destruction
Protocol: as §1, §2
To produce a suitable preparation of active compound, 1 part by weight of active compound is mixed with the stated amount of solvent and the stated amount of emulsifier, and the concentrate is diluted with water to the desired concentration.
Cabbage leaves (Brassica oleracea) are treated by being dipped into the preparation of active compound of the desired concentration and are infested with caterpillars of the diamond-back moth (Plutella maculipennis) while the leaves are still moist.
After the desired time, the destruction in % is determined. 100% means that all the caterpillars have been killed; 0% means that none of the caterpillars have been killed.

[3] = tested on: mustard beetle larvae (Phaedon cochleariae); assay: Phaedon larvae test (cabbage leaves dipped); type: in vivo; settings: after 7 days, 0.01% active compound; for mortality at 0.01 % strength: Phaedon cochleariae, 168 h, read-out: destruction
Protocol: (§3) Phaedon Larvae Test Solvent: 7 parts by weight of dimethylformamide Emulsifier: 1 part by weight of alkylaryl polyglycol ether To produce a suitable preparation of active compound, 1 part by weight of active compound is mixed with the stated amount of solvent and the stated amount of emulsifier, and the concentrate is diluted with water to the desired concentration. Cabbage leaves (Brassica oleracea) are treated by being dipped into the preparation of the active compound of the desired concentration and are infested with mustard beetle larvae (Phaedon cochleariae), as long as the leaves are still moist.

[4] = tested on: caterpillars of the owlet moth (Spodoptera frugiperda); assay: Spodoptera frugiperda test (cabbage leaves dipped); type: in vivo; settings: after 7 days, 0.1% active compound; for mortality at 0.1 % strength: Spodoptera frugiperda, 168 h, read-out: destruction
Protocol: as §3, with “Spodoptera Frugiperda-Test Solvent: 7” for “Phaedon Larvae Test Solvent: 7”, “preparation of active compound” for “preparation of the active compound”, “infested with caterpillars of the owlet moth (Spodoptera frugiperda), as long” for “infested with mustard beetle larvae (Phaedon cochleariae), as long”

[5] = tested on: green peach aphid (Myzus persicae); assay: Myzus test (infested broad bean seedlings dipped); type: in vivo; settings: 144 h, after 6 days, 0.01% active compound, read-out: destruction
Protocol: as §1, §2
To produce a suitable preparation of active compound, 1 part by weight of active compound is mixed with the stated amount of solvent and the stated amount of emulsifier and the concentrate is diluted with water to the desired concentration.
Seedlings of broad beans (Vicia faba) infested by the green peach aphid (Myzus persicae) are dipped into the preparation of active compound of the desired concentration and placed in a plastic container.
After the desired time, the destruction in % is determined. 100% means that all the aphids have been killed; 0% means that none of the aphids has been killed.

[6] = log p (partition coefficient octanol/water, determined experimentally from reversed phase HPLC); type: physicochemical; settings: reversed phase hplc
Excerpt: [log p=logarithm of the partition coefficient p of the substance between the solvents octanol and water, determined experimentally from reversed phase HPLC]

Row | chromatographic logP [6] | SMILES | mortality at 0.01 % strength [3] [%] | mortality at 0.1 % strength [4] [%] | also measured
1 | – | COc1ccc(-c2ccc(C3COC(c4c(F)cccc4F)=N3)cc2)cc1 (stereo not shown) [(A), reference compound] | – | – | mortality at 0.001 % strength ([1]; after 13 days, 0.001% active compound): 45%; mortality at 0.0001 % strength [2]: 5%; destruction [3]: no destruction; destruction [4]: no destruction; mortality at 0.01 % strength [5]: 5%
2 | – | O=C(COc1ccc(-c2ccc(C3COC(c4c(F)cccc4F)=N3)cc2)cc1)c1ccccc1 (stereo not shown) [Example 1, 2-(2,6-difluorophenyl)-4-(4'-benzoylmethoxy-biphenyl-4-yl)-1,3-oxazoline] | 100 | 100 | mortality at 0.001 % strength [1]: 98%
3 | – | CC(C#N)Oc1ccc(-c2ccc(C3COC(c4c(F)cccc4F)=N3)cc2)cc1 (stereo not shown) [Example 4, 2-(2,6-difluorophenyl)-4-[4'-(2-propionitriloxy)-biphenyl-4-yl]-1,3-oxazoline] | 100 | 100 | mortality at 0.0001 % strength [2]: 100%
4 | 4.43 | CC(C)(C)OC(=O)COc1ccc(-c2ccc(C3COC(c4c(F)cccc4F)=N3)cc2)cc1 (stereo not shown) [Example 10] | – | 100 | –
5 | – | CON=C(C)COc1ccc(-c2ccc(C3COC(c4c(F)cccc4F)=N3)cc2)cc1 (stereo not shown) [Example 13] | 100 | – | –
6 | – | N#CCCCOc1ccc(-c2ccc(C3COC(c4c(F)cccc4F)=N3)cc2)cc1 (stereo not shown) [Example 14] | 100 | 100 | –
7 | 4.74 | CCOC(CCOc1ccc(-c2ccc(C3COC(c4c(F)cccc4F)=N3)cc2)cc1)OCC (stereo not shown) [Example 16] | 100 | 100 | –
8 | 4.56 | COC(=O)C(Oc1ccc(-c2ccc(C3COC(c4c(F)cccc4F)=N3)cc2)cc1)C(C)C (stereo not shown) [Example 18] | – | 100 | –
9 | – | CC(Oc1ccc(-c2ccc(C3COC(c4c(F)cccc4F)=N3)cc2)cc1)C1=NOCCO1 (stereo not shown) [Example 20] | 100 | 100 | –
10 | – | CCCC(C#N)Oc1ccc(-c2ccc(C3COC(c4c(F)cccc4F)=N3)cc2)cc1 (stereo not shown) [Example 21] | 100 | 100 | –
11 | – | CON=C(COc1ccc(-c2ccc(C3COC(c4c(F)cccc4F)=N3)cc2)cc1)c1cc(Cl)ccc1Cl (stereo not shown) [Example 191] | – | – | chromatographic logP ([6]; A isomer): 5.62; chromatographic logP ([6]; B isomer): 5.44
12 | – | CCON=C(COc1ccc(-c2ccc(C3COC(c4c(F)cccc4F)=N3)cc2)cc1)c1cc(Cl)ccc1Cl (stereo not shown) [Example 192] | – | – | chromatographic logP ([6]; A isomer): 6; chromatographic logP ([6]; B isomer): 5.79

Row | SMILES | chromatographic logP [6] | mortality at 0.01 % strength [3] [%] | mortality at 0.1 % strength [4] [%] | also measured
13 | CON=C(COc1ccc(-c2ccc(C3COC(c4c(F)cccc4F)=N3)cc2)cc1)c1ccccc1 (stereo not shown) [Example 2] | 5.01 | 100 | 100 | mortality at 0.001 % strength [1]: 98%; mortality at 0.0001 % strength [2]: 100%
